Results from patent US10961236B2, “(S)-2-(1-cyclopropylethyl)-5-(4-methyl-2-((6-(2-oxopyrrolidin-1-yl)pyridin-2-yl)amino) thiazol-5-yl)-7-(methylsulfonyl)isoindolin-1-one as a phosphatidylinositol 3-kinase inhibitor” (AstraZeneca AB, priority 2016, dated 2021).
pIC50: −log10 of the molar value.

How the values were obtained:
Assay type in all cases: biochemical
[1] = target: recombinant human PI3Kδ (6-His(p110-p85α)) (Homo sapiens (Human), UniProt O00329); assay: Enzymatic activity assay for recombinant human PI3Kδ (ADP-Glo); settings: 0.6 nM PI3Kδ, 20 μM ATP, 80 μM DiC8-PIP2, ADP-Glo
Procedure: (§1) Enzymatic Activity Assay for Recombinant Human PI3K α, β, δ and γ.
(§2) The activity of recombinant human PI3Kγ ((aa144-1102)-6His) and PI3Kα, β, δ (6-His(p110-p85α)) was determined by measuring the ADP level after phosphorylation of DiC8-PIP2 using a commercially available ADP-Glo™ kit from Promega. The assay was carried out in white low volume 384 well plates in a final volume of 14 μl at R.T. The assay conditions contained the following: 50 mM Tris buffer pH 7.4, 2.1 mM DTT, 3 mM MgCl2, 0.05% CHAPS, 20 μM ATP, 80 μM DiC8-PIP2 and 1.2 nM PI3Kα, β, γ or 0.6 nM PI3Kδ. […] Routinely, inhibitors were pre-incubated with 3 μl of enzyme for 15 min prior to the addition of 2 μl substrate mixture for a further 60 min enzyme reaction. The phosphorylation was stopped with the addition of 3 μl ADP-Glo™ reagent (stop solution) followed by a 40 min incubation. Prior to detection 6 μl of ADP-Glo™ Kinase Detection Reagent was added and the plates were read in a micro plate reader using a Luminescence filter. All additions were followed by a short centrifugation step.

[2] = target: recombinant human PI3Kγ ((aa144-1102)-6His) (Homo sapiens (Human), UniProt P48736); assay: Enzymatic activity assay for recombinant human PI3Kγ (ADP-Glo); settings: 1.2 nM PI3Kγ, 20 μM ATP, 80 μM DiC8-PIP2, ADP-Glo
Procedure: as §1, §2

[3] = target: recombinant human PI3Kβ (6-His(p110-p85α)) (Homo sapiens (Human), UniProt P42338); assay: Enzymatic activity assay for recombinant human PI3Kβ (ADP-Glo); settings: 1.2 nM PI3Kβ, 20 μM ATP, 80 μM DiC8-PIP2, ADP-Glo
Procedure: as §1
as §2, with “PI3Kδ. Potential inhibitors were made up in DMSO and then diluted in the assay to give a final concentration of not exceeding 1% (v/v) DMSO.” for “PI3Kδ.”

[4] = target: recombinant human PI3Kα (6-His(p110-p85α)) (Homo sapiens (Human), UniProt P42336); assay: Enzymatic activity assay for recombinant human PI3Kα (ADP-Glo); settings: 1.2 nM PI3Kα, 20 μM ATP, 80 μM DiC8-PIP2, ADP-Glo
Procedure: as §1
as §2, with “PI3Kδ. Potential inhibitors were made up in DMSO and then diluted in the assay to give a final concentration of not exceeding 1% (v/v) DMSO.” for “PI3Kδ.”

Chain of recombinant human PI3Kδ (6-His(p110-p85α)) (O00329 whole entry): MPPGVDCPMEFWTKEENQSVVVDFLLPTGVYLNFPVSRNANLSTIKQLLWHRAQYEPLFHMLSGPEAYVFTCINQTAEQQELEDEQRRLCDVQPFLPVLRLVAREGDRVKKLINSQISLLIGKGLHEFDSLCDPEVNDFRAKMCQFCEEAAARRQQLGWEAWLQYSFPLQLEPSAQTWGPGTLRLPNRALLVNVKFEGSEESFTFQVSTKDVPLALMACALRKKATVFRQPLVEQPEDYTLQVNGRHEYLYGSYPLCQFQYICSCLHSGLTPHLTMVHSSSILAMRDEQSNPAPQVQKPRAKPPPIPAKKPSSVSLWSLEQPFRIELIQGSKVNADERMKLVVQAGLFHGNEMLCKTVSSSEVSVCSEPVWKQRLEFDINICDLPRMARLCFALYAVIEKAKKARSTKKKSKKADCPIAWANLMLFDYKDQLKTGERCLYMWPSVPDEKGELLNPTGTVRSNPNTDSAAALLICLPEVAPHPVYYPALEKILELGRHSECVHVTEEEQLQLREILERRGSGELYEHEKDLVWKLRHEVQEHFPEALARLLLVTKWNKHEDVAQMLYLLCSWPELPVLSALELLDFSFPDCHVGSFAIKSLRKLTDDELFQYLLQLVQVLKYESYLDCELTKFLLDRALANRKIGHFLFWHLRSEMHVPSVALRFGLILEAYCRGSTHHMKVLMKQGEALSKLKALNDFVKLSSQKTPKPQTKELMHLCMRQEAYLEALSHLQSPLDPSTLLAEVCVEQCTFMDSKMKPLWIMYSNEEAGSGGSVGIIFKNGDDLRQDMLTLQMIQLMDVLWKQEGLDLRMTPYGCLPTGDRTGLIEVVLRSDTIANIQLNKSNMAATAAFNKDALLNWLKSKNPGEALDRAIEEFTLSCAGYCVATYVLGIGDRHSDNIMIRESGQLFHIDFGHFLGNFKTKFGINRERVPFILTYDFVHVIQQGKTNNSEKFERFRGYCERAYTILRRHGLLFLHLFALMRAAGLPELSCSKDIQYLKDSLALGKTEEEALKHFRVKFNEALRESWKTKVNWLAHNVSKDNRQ
Chain of recombinant human PI3Kδ (6-His(p110-p85α)) (P27986 whole entry partner): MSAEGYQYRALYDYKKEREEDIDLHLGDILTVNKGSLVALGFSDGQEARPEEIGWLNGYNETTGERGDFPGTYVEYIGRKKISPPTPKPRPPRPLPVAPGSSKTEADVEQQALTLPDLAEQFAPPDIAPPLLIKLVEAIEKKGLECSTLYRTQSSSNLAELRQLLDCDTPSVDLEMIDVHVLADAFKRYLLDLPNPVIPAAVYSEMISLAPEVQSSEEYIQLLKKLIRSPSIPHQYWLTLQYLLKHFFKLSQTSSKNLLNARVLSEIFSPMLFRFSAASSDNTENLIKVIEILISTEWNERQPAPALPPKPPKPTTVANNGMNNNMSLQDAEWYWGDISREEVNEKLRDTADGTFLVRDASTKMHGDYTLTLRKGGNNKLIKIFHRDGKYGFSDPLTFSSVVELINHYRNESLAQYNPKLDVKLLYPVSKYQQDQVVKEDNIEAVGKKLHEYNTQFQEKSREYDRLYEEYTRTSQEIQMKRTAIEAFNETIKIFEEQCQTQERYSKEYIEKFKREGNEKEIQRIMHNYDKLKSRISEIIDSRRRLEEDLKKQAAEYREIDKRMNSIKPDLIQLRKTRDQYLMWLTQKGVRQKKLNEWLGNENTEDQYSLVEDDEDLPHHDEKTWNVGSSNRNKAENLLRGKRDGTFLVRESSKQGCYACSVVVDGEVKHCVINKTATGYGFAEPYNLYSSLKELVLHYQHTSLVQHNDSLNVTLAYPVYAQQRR
Chain of recombinant human PI3Kγ ((aa144-1102)-6His) (P48736 144-1102): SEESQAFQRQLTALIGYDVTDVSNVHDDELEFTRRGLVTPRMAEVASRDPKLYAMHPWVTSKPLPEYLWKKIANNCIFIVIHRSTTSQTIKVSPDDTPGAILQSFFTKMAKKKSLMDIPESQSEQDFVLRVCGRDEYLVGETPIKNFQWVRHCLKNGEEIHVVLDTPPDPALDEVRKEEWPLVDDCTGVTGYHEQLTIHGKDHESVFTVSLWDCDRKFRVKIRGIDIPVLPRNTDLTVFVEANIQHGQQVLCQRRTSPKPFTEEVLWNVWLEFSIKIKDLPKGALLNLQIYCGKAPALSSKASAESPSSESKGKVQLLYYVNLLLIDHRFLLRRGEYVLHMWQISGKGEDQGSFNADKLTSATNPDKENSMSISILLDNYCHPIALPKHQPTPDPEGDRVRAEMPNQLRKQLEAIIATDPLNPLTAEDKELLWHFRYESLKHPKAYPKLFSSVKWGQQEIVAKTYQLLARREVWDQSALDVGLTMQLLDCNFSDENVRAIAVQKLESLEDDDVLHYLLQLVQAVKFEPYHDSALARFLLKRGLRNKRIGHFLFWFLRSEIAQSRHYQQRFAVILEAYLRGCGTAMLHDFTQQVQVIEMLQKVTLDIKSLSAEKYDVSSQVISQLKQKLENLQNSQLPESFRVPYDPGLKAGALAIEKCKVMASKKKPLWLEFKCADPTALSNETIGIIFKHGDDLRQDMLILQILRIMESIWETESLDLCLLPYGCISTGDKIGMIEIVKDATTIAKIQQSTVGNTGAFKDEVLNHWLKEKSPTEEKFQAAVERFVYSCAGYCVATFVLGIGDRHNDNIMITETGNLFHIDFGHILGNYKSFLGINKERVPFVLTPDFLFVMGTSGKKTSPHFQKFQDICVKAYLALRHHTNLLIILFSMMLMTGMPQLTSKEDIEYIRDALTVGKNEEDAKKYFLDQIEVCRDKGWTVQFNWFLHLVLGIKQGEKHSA
Chain of recombinant human PI3Kβ (6-His(p110-p85α)) (P42338 whole entry): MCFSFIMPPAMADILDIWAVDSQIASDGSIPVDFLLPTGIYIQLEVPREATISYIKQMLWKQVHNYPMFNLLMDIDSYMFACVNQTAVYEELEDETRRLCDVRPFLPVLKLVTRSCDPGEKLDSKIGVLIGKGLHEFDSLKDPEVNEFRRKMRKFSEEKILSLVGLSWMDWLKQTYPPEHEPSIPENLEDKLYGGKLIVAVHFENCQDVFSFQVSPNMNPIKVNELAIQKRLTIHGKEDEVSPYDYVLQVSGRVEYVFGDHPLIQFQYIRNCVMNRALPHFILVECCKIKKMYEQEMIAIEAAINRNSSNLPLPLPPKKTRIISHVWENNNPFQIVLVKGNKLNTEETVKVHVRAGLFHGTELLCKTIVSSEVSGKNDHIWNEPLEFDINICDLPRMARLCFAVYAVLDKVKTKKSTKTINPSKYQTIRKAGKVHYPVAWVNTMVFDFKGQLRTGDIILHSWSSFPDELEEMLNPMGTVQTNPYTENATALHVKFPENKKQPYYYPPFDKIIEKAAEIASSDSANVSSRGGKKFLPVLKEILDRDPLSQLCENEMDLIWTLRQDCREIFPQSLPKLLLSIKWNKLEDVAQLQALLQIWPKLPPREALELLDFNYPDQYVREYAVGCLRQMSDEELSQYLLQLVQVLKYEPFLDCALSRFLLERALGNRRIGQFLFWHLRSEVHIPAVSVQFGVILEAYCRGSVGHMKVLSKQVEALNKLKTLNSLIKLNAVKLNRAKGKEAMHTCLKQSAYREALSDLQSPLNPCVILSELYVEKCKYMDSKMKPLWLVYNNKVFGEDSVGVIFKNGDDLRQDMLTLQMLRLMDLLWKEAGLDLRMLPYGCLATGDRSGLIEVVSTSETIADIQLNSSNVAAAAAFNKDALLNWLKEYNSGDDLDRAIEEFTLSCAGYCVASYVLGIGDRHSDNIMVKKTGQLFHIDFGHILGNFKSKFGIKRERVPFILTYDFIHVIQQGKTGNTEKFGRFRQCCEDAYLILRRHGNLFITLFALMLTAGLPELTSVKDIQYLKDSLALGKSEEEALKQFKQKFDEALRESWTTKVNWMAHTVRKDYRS
Chain of recombinant human PI3Kβ (6-His(p110-p85α)) (P27986 whole entry partner): as the sequence (P27986 whole entry partner) above
Chain of recombinant human PI3Kα (6-His(p110-p85α)) (P42336 whole entry): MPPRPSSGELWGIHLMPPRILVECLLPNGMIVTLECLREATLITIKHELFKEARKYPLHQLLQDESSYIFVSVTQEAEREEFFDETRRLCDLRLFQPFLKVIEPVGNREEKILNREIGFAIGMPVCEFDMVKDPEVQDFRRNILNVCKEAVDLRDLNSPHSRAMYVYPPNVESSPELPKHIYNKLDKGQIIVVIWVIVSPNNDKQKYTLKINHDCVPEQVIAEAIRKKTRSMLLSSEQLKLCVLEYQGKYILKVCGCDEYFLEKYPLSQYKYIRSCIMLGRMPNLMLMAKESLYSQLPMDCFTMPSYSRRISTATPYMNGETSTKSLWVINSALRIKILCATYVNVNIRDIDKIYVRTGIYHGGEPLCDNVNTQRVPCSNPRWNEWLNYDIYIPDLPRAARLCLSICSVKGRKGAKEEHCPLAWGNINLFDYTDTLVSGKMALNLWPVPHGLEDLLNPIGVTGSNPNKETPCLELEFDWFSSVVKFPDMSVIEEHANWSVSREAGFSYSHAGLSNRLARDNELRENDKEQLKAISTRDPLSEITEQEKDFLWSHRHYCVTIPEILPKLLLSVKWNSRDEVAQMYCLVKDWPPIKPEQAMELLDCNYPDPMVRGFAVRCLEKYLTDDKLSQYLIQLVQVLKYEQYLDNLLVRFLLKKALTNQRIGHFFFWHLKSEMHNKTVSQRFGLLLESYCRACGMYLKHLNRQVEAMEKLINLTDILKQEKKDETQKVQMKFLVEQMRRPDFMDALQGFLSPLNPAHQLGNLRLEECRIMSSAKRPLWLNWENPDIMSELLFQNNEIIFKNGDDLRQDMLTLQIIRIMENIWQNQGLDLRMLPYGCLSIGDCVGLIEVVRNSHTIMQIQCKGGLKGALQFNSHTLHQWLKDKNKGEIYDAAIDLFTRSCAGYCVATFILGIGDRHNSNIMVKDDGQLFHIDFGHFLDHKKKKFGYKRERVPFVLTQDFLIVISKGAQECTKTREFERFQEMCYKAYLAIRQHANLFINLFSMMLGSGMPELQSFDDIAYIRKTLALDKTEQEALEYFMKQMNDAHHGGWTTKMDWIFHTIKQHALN
Chain of recombinant human PI3Kα (6-His(p110-p85α)) (P27986 whole entry partner): as the sequence (P27986 whole entry partner) above

Structure (SMILES) | pIC50 [1] | pIC50 [2] | pIC50 [3] | pIC50 [4]
CC[C@H](C)N1Cc2cc(-c3sc(Nc4cccc(N5CCOCC5=O)n4)nc3C)cc(S(=O)(=O)NC)c2C1=O [Example 62, 2-[(2S)-Butan-2-yl]-N-methyl-6-(4-methyl-2-{[6-(3-oxomorpholin-4-yl)pyridin-2-yl]amino}-1,3-thiazol-5-yl)-3-oxo-2,3-dihydro-1H-isoindole-4-sulfonamide] | 8.68 | 9.10 | 5.94 | 6.79
CNS(=O)(=O)c1cc(-c2sc(Nc3cccc(N4CCN[C@@H](C)C4=O)n3)nc2C)cc2c1C(=O)N([C@@H](C)C1CC1)C2 [Example 44, 2-[(1S)-1-Cyclopropylethyl]-N-methyl-6-[4-methyl-2-({6-[(3S)-3-methyl-2-oxopiperazin-1-yl]pyridin-2-yl}amino)-1,3-thiazol-5-yl]-3-oxo-2,3-dihydro-1H-isoindole-4-sulfonamide] | 8.82 | 8.92 | 6.29 | 7.14
CNS(=O)(=O)c1cc(-c2sc(Nc3cccc(N4C(=O)CNC[C@@H]4C)n3)nc2C)cc2c1C(=O)N([C@@H](C)C1CC1)C2 [Example 49, 2-[(1S)-1-Cyclopropylethyl]-N-methyl-6-[4-methyl-2-({6-[(2S)-2-methyl-6-oxopiperazin-1-yl]pyridin-2-yl}amino)-1,3-thiazol-5-yl]-3-oxo-2,3-dihydro-1H-isoindole-4-sulfonamide] | 8.59 | 8.72 | 6.10 | 7.06
CC(=O)N(C)c1cccc(Nc2nc(C)c(-c3cc4c(c(S(C)(=O)=O)c3)C(=O)N([C@@H](C)C3CC3)C4)s2)n1 [Example 3, N-{6-[(5-{2-[(1S)-1-Cyclopropylethyl]-7-(methylsulfonyl)-1-oxo-2,3-dihydro-1H-isoindol-5-yl}-4-methyl-1,3-thiazol-2-yl)amino]pyridin-2-yl}-N-methylacetamide] | 8.85 | 9.10 | 5.93 | 6.90
CNS(=O)(=O)c1cc(-c2sc(Nc3cccc(N4CCNC(C)(C)C4=O)n3)nc2C)cc2c1C(=O)N([C@@H](C)C1CC1)C2 [Example 47, 2-[(1S)-1-Cyclopropylethyl]-6-(2-{[6-(3,3-dimethyl-2-oxopiperazin-1-yl)pyridin-2-yl]amino}-4-methyl-1,3-thiazol-5-yl)-N-methyl-3-oxo-2,3-dihydro-1H-isoindole-4-sulfonamide] | 8.36 | 8.89 | 6.08 | 7.01
CNS(=O)(=O)c1cc(-c2sc(Nc3cccc(N4C[C@H](O)CC4=O)n3)nc2C)cc2c1C(=O)N([C@@H](C)C1CC1)C2 [Example 55, 2-[(1S)-1-Cyclopropylethyl]-6-[2-({6-[(4R)-4-hydroxy-2-oxopyrrolidin-1-yl]pyridin-2-yl}amino)-4-methyl-1,3-thiazol-5-yl]-N-methyl-3-oxo-2,3-dihydro-1H-isoindole-4-sulfonamide] | 8.96 | 9.05 | 6.41 | 7.40
CNS(=O)(=O)c1cc(-c2sc(Nc3cccc(N(C)C(=O)[C@H](C)OC)n3)nc2C)cc2c1C(=O)N([C@@H](C)C1CC1)C2 [Example 16, (2S)—N-{6-[(5-{2-[(1S)-1-Cyclopropylethyl]-7-(methylsulfamoyl)-1-oxo-2,3-dihydro-1H-isoindol-5-yl}-4-methyl-1,3-thiazol-2-yl)amino]pyridin-2-yl}-2-methoxy-N-methylpropanamide] | 9.10 | 8.92 | 6.27 | 7.26
Cc1nc(Nc2cccc(N3CCCOC3=O)n2)sc1-c1cc2c(c(S(=O)(=O)NC3COC3)c1)C(=O)N([C@@H](C)C1CC1)C2 [Example 35, 2-[(1S)-1-Cyclopropylethyl]-6-(4-methyl-2-{[6-(2-oxo-1,3-oxazinan-3-yl)pyridin-2-yl]amino}-1,3-thiazol-5-yl)-N-(oxetan-3-yl)-3-oxo-2,3-dihydro-1H-isoindole-4-sulfonamide] | 9.05 | 9.00 | 6.32 | 7.28
CNS(=O)(=O)c1cc(-c2sc(Nc3cccc(N4C(=O)CNC[C@H]4C)n3)nc2C)cc2c1C(=O)N([C@@H](C)C1CC1)C2 [Example 46, 2-[(1S)-1-Cyclopropylethyl]-N-methyl-6-[4-methyl-2-({6-[(2R)-2-methyl-6-oxopiperazin-1-yl]pyridin-2-yl}amino)-1,3-thiazol-5-yl]-3-oxo-2,3-dihydro-1H-isoindole-4-sulfonamide] | 9.10 | 9.00 | 6.91 | 7.62
CNS(=O)(=O)c1cc(-c2sc(Nc3cccc(N4CCOCC4=O)n3)nc2C)cc2c1C(=O)N([C@@H](C)C1CC1)C2 [Example 20, 2-[(1S)-1-Cyclopropylethyl]-N-methyl-6-(4-methyl-2-{[6-(3-oxomorpholin-4-yl)pyridin-2-yl]amino}-1,3-thiazol-5-yl)-3-oxo-2,3-dihydro-1H-isoindole-4-sulfonamide] | 9.15 | 9.05 | 6.27 | 7.43
CNS(=O)(=O)c1cc(-c2sc(Nc3cccc(N(C)C(=O)COC)n3)nc2C)cc2c1C(=O)N([C@@H](C)C1CC1)C2 [Example 14, N-{6-[(5-{2-[(1S)-1-Cyclopropylethyl]-7-(methylsulfamoyl)-1-oxo-2,3-dihydro-1H-isoindol-5-yl}-4-methyl-1,3-thiazol-2-yl)amino]pyridin-2-yl}-2-methoxy-N-methylacetamide] | 9.40 | 9.05 | 6.14 | 7.10
Cc1nc(Nc2cccc(N3CCN(C)C3=O)n2)sc1-c1cc2c(c(S(C)(=O)=O)c1)C(=O)N([C@@H](C)C1CC1)C2 [Example 5, 2-[(1S)-1-Cyclopropylethyl]-5-(4-methyl-2-{[6-(3-methyl-2-oxoimidazolidin-1-yl)pyridin-2-yl]amino}-1,3-thiazol-5-yl)-7-(methylsulfonyl)-2,3-dihydro-1H-isoindol-1-one] | 9.15 | 8.92 | 5.33 | 7.42
Cc1nc(Nc2cccc(N3CCCC3=O)n2)sc1-c1cc2c(c(S(=O)(=O)NC3COC3)c1)C(=O)N([C@@H](C)C1CC1)C2 [Example 32, 2-[(1S)-1-Cyclopropylethyl]-6-(4-methyl-2-{[6-(2-oxopyrrolidin-1-yl)pyridin-2-yl]amino}-1,3-thiazol-5-yl)-N-(oxetan-3-yl)-3-oxo-2,3-dihydro-1H-isoindole-4-sulfonamide] | 9.15 | 8.89 | 5.69 | 6.85
CNS(=O)(=O)c1cc(-c2sc(Nc3cccc(N4CCCC4=O)n3)nc2C)cc2c1C(=O)N([C@@H](C)C(F)(F)F)C2 [Example 25, N-Methyl-6-(4-methyl-2-{[6-(2-oxopyrrolidin-1-yl)pyridin-2-yl]amino}-1,3-thiazol-5-yl)-3-oxo-2-[(2S)-1,1,1-trifluoropropan-2-yl]-2,3-dihydro-1H-isoindole-4-sulfonamide] | 9.15 | 8.96 | 6.30 | 7.15
CNS(=O)(=O)c1cc(-c2sc(Nc3cccc(N4CCN(CCO)CC4=O)n3)nc2C)cc2c1C(=O)N([C@@H](C)C1CC1)C2 [Example 59, 2-[(1S)-1-Cyclopropylethyl]-6-[2-({6-[4-(2-hydroxyethyl)-2-oxopiperazin-1-yl]pyridin-2-yl}amino)-4-methyl-1,3-thiazol-5-yl]-N-methyl-3-oxo-2,3-dihydro-1H-isoindole-4-sulfonamide] | 9.15 | 9.05 | 6.32 | 7.57
